This assay concerns B6C3F1 mice, intracerebral ependymoblastoma, median survival T/C. The experiment in a line: NCI In Vivo Anticancer Drug Screen. Data for tumor model Ependymoblastoma (intracerebral) in B6C3F1 mice. Conditions: endpoint: median survival time, higher = longer survival. How it is done: The antitumor activity of compounds was measured in mice bearing transplantable tumors. Survival or tumor size were measured and the results are expressed as the measurement made in the treated group (T) divided by the measurement made in the vehicle treated control group (C). The tumor model used in this assay is Ependymoblastoma (intracerebral) in B6C3F1 mice

[1] abbreviates: dose: 128.0 mg/kg/injection, schedule: Q01DX005 (ip), vehicle: Klucel (hydroxypropylcellulose) (HPC).

Molecules are shown by their SMILES. Values joined by “and” are separate entries in the source; they are usually repeats but may differ in a detail not shown here. Equal entries are not always repeated. Inconclusive results and toxic doses are left out.

On to `O=NN(CCCl)C(=O)NC1CCCCC1`, for which the T/C by setting is: (dose: 1.5 mg/kg/injection, schedule: Q01DX009 (ip), vehicle: Klucel (hydroxypropylcellulose) (HPC)) 110 % of control; (dose: 2.4 mg/kg/injection, schedule: Q01DX001 (ip), vehicle: other) 98 % of control; (dose: 4.0 mg/kg/injection, schedule: Q01DX009 (ip), vehicle: Klucel (hydroxypropylcellulose) (HPC)) 241 % of control; (dose: 4.7 mg/kg/injection, schedule: Q01DX001 (ip), vehicle: other) 102 % of control; (dose: 5.18 mg/kg/injection, schedule: Q01DX005 (ip), vehicle: Klucel (hydroxypropylcellulose) (HPC)) 154 % of control; (dose: 6.0 mg/kg/injection, schedule: Q01DX009 (ip), vehicle: Klucel (hydroxypropylcellulose) (HPC)) 213 % of control. The T/C by setting is: (dose: 8.0 mg/kg/injection, schedule: Q01DX009 (ip), vehicle: Klucel (hydroxypropylcellulose) (HPC)) 241 % of control; (dose: 8.64 mg/kg/injection, schedule: Q01DX005 (ip), vehicle: Klucel (hydroxypropylcellulose) (HPC)) 244 % of control; (dose: 9.5 mg/kg/injection, schedule: Q01DX001 (ip), vehicle: other) 121 % of control; (dose: 12.0 mg/kg/injection, schedule: Q01DX009 (ip), vehicle: Klucel (hydroxypropylcellulose) (HPC)) 326 % of control; (dose: 13.0 mg/kg/injection, schedule: Q01DX001 (ip), vehicle: Klucel (hydroxypropylcellulose) (HPC)) 181 % of control; (dose: 14.4 mg/kg/injection, schedule: Q01DX005 (ip), vehicle: Klucel (hydroxypropylcellulose) (HPC)) 357 % of control. In addition, the T/C runs as follows: (dose: 16.0 mg/kg/injection, schedule: Q01DX009 (ip), vehicle: Klucel (hydroxypropylcellulose) (HPC)) 104 % of control; (dose: 18.9 mg/kg/injection, schedule: Q01DX001 (ip), vehicle: other) 171 % of control; (dose: 21.6 mg/kg/injection, schedule: Q01DX001 (ip), vehicle: Klucel (hydroxypropylcellulose) (HPC)) 193 % of control; (dose: 24.0 mg/kg/injection, schedule: Q01DX005 (ip), vehicle: Klucel (hydroxypropylcellulose) (HPC)) 357 % of control; (dose: 24.0 mg/kg/injection, schedule: Q01DX009 (ip), vehicle: Klucel (hydroxypropylcellulose) (HPC)) 315 % of control; (dose: 32.0 mg/kg/injection, schedule: Q01DX001 (ip), vehicle: saline + alcohol) 233 % of control. Also, the T/C is, setting by setting: (dose: 36.0 mg/kg/injection, schedule: Q01DX001 (ip), vehicle: Klucel (hydroxypropylcellulose) (HPC)) 363 % of control; (dose: 37.8 mg/kg/injection, schedule: Q01DX001 (ip), vehicle: other) 331 % of control; (dose: 40.0 mg/kg/injection, schedule: Q01DX005 (ip), vehicle: Klucel (hydroxypropylcellulose) (HPC)) 154 % of control; (dose: 60.0 mg/kg/injection, schedule: Q01DX001 (ip), vehicle: Klucel (hydroxypropylcellulose) (HPC)) 363 % of control; (dose: 64.0 mg/kg/injection, schedule: Q01DX001 (ip), vehicle: saline + alcohol) 324 % of control; (dose: 100.0 mg/kg/injection, schedule: Q01DX001 (ip), vehicle: Klucel (hydroxypropylcellulose) (HPC)) 363 % of control. The T/C (dose: 128.0 mg/kg/injection, schedule: Q01DX001 (ip), vehicle: saline + alcohol) is 90 % of control.
`Cc1cn(C2CC(O)C(CO)O2)c(=O)[nH]c1=O` (stereo not drawn): the T/C by setting is: (dose: 64.0 mg/kg/injection, schedule: Q01DX005 (ip), vehicle: suspension in saline) 104 % of control; (dose: 125.0 mg/kg/injection, schedule: Q01DX003 (ip), vehicle: saline with Tween-80) 95 % of control; (dose: 125.0 mg/kg/injection, schedule: Q04DX003 (ip), vehicle: saline with Tween-80) 111 % of control; (dose: 128.0 mg/kg/injection, schedule: Q01DX005 (ip), vehicle: suspension in saline) 94 % of control; (dose: 250.0 mg/kg/injection, schedule: Q01DX003 (ip), vehicle: saline with Tween-80) 99 % of control; (dose: 250.0 mg/kg/injection, schedule: Q04DX003 (ip), vehicle: saline with Tween-80) 113 % of control. Besides, the T/C (dose: 256.0 mg/kg/injection, schedule: Q01DX005 (ip), vehicle: suspension in saline) is 95 % of control; the T/C (dose: 500.0 mg/kg/injection, schedule: Q01DX003 (ip), vehicle: saline with Tween-80) is 95 % of control; the T/C (dose: 500.0 mg/kg/injection, schedule: Q04DX003 (ip), vehicle: saline with Tween-80) was 92 % of control and 120 % of control; the T/C (dose: 512.0 mg/kg/injection, schedule: Q01DX005 (ip), vehicle: suspension in saline) is 92 % of control; the T/C (dose: 800.0 mg/kg/injection, schedule: Q01DX005 (ip), vehicle: saline with Tween-80) was 98 % of control; the T/C (dose: 1000.0 mg/kg/injection, schedule: Q01DX003 (ip), vehicle: saline with Tween-80) is 107 % of control. Also, the T/C by setting is: (dose: 1000.0 mg/kg/injection, schedule: Q04DX003 (ip), vehicle: saline with Tween-80) 106 % of control and 112 % of control; (dose: 1024.0 mg/kg/injection, schedule: Q01DX005 (ip), vehicle: suspension in saline) 103 % of control; (dose: 1600.0 mg/kg/injection, schedule: Q01DX005 (ip), vehicle: saline with Tween-80) 101 % of control; (dose: 2000.0 mg/kg/injection, schedule: Q01DX003 (ip), vehicle: saline with Tween-80) 97 % of control; (dose: 2000.0 mg/kg/injection, schedule: Q04DX003 (ip), vehicle: saline with Tween-80) 116 % of control and 89 % of control; (dose: 3000.0 mg/kg/injection, schedule: Q01DX003 (ip), vehicle: saline with Tween-80) 94 % of control. Besides, the T/C reads like this: (dose: 3000.0 mg/kg/injection, schedule: Q04DX003 (ip), vehicle: saline with Tween-80) 94 % of control and 104 % of control; (dose: 3200.0 mg/kg/injection, schedule: Q01DX005 (ip), vehicle: saline with Tween-80) 91 % of control.
Regarding `Nc1ncnc2nc[nH]c12`, the T/C was 106 % of control and 113 % of control (dose: 4.0 mg/kg/injection, schedule: Q01DX005 (ip), vehicle: saline with Tween-80); 100 % of control and 114 % of control (dose: 8.0 mg/kg/injection, schedule: Q01DX005 (ip), vehicle: saline with Tween-80); 107 % of control and 118 % of control (dose: 16.0 mg/kg/injection, schedule: Q01DX005 (ip), vehicle: saline with Tween-80); 101 % of control and 102 % of control (dose: 32.0 mg/kg/injection, schedule: Q01DX005 (ip), vehicle: saline with Tween-80); 108 % of control (dose: 64.0 mg/kg/injection, schedule: Q01DX005 (ip), vehicle: Klucel (hydroxypropylcellulose) (HPC)); 100 % of control and 117 % of control (dose: 64.0 mg/kg/injection, schedule: Q01DX005 (ip), vehicle: saline with Tween-80). For the same compound, the T/C reads like this: under setting [1], 107 % of control; (dose: 256.0 mg/kg/injection, schedule: Q01DX005 (ip), vehicle: Klucel (hydroxypropylcellulose) (HPC)) 96 % of control.
As for `O=c1[nH]c(=O)n(C2CC(O)C(CO)O2)cc1C(F)(F)F` (stereo not drawn), the T/C is, setting by setting: (dose: 32.0 mg/kg/injection, schedule: Q01DX005 (ip), vehicle: Klucel (hydroxypropylcellulose) (HPC)) 102 % of control; under setting [1], 97 % of control.
Take `CCN(CC)CCOc1ccc(/C(=C(\Cl)c2ccccc2)c2ccccc2)cc1`: the T/C (dose: 8.0 mg/kg/injection, schedule: Q01DX005 (ip), vehicle: saline) was 101 % of control and 106 % of control; the T/C (dose: 16.0 mg/kg/injection, schedule: Q01DX005 (ip), vehicle: saline) is 93 % of control and 100 % of control; the T/C (dose: 32.0 mg/kg/injection, schedule: Q01DX005 (ip), vehicle: saline) was 92 % of control and 103 % of control; the T/C (dose: 64.0 mg/kg/injection, schedule: Q01DX005 (ip), vehicle: saline) is 101 % of control and 104 % of control.
Turning to `O=P1(N(CCCl)CCCl)NC(OO)CCO1` (stereo not drawn), the T/C (dose: 40.0 mg/kg/injection, schedule: Q01DX001 (ip), vehicle: saline) is 102 % of control; the T/C (dose: 80.0 mg/kg/injection, schedule: Q01DX001 (ip), vehicle: saline) was 108 % of control; the T/C (dose: 160.0 mg/kg/injection, schedule: Q01DX001 (ip), vehicle: saline) was 113 % of control.
Consider `CN(C)C(=O)N(CCCl)N=O`, for which the T/C reads like this: (dose: 5.0 mg/kg/injection, schedule: Q01DX001 (ip), vehicle: DMSO) 106 % of control; (dose: 8.3 mg/kg/injection, schedule: Q01DX001 (ip), vehicle: DMSO) 112 % of control; (dose: 12.5 mg/kg/injection, schedule: Q01DX001 (ip), vehicle: water) 188 % of control; (dose: 23.0 mg/kg/injection, schedule: Q01DX001 (ip), vehicle: DMSO) 366 % of control; (dose: 25.0 mg/kg/injection, schedule: Q01DX001 (ip), vehicle: water) 332 % of control; (dose: 38.4 mg/kg/injection, schedule: Q01DX001 (ip), vehicle: DMSO) 365 % of control.

The values above are taken from PubChem BioAssay AID226 (DTP/NCI, 2004).
